Results on 16 compounds are retold here after patent publication US8815919B2, “Oxadiazole derivatives” (Merck Serono SA, priority 2009, dated 2014).

In assay [1] the target is T1, S1P1 (Homo sapiens, UniProt P21453). The assay is described as follows: S1P1 internalization assay in S1P1-U2OS cells (S1P1-EGFP), cell imaging. In kind it is cell-based. Set-up: host or cells: U2OS (human bone osteosarcoma epithelial cells), CMV promoter, geneticin selection. To be noted: 1 hour incubation. As for the experimental part: Cellular functional assays: Internalization of Sphingosine-1-phosphate receptor 1 (S1P1) in a human Cell line (U2OS) in a 384-well format using a Cell Imaging analysis. • Jo, E.; Sanna, M. G.; Gonzalez-Cabrera, P. J.; Thangada, S.; Tigyi, S.; Osborne, D. A.; Hla, T.; Parrill, A. L.; Rosen, H. Chem. Biol. 2005, 12, 703
The S1P1 internalization assay was performed in 384 well plates (Corning® 384 black with clear bottom 3712) using S1P1-U2OS cells from Biolmage (C039A), a human epithelial cell line (Human Bone Osteosarcoma Epithelial Cells). These cells expressed the human S1P1 Receptor fused to the green fluorescent protein (EGFP). A standard CMV promoter (cytomegalovirus promoter) controls the expression of S1P1-EGFP and continuous expression was maintained by addition of geneticin to the culture medium.
S1P1 Receptor desensitization induced the internalization of the membrane-localized S1P1-EGFP fusion protein to endosomes, which can be monitored by cell imaging analysis. The cells are plated in low serum medium (Dulbecco's Modified Eagle Medium (DMEM) with Glutamax-1 and high glucose, 1% Penicillin/Streptomycin, 1% Fetal Calf Serum (FCS), 0.5 mg/ml Geneticin) overnight.
The next day, S1P1-U2OS cells are incubated in 20 μl serum free medium (DMEM with Glutamax-1 and high glucose, 0.1% of fatty-acid free Bovin Serum Albumin (BSA), 10 mM, N′-2-Hydroxyethylpiperazine-N′-2 ethanesulphonic acid (HEPES) 1M) for 2 hours at 37° C./5% CO2. The cells are then treated with 4 μl compounds/agonists (6×/3% DMSO) for a total volume of 24 μl, and plates are incubated for 1 hour at 37° C./5% CO2.
S1P1-U2OS cells are fixed with 25 μl Paraformaldehyde 8% and stained with Hoechst 33345 dye (1:1000) for 20 minutes.
They were then washed 3 times with Phosphate Buffered Saline (PBS) and plates are sealed. The internalization of the receptor S1P1-EGFP is measured on Cellomics by calculating the “spot count per object” (“object” corresponds to nuclear and “spot” corresponds to S1P1-EGFP receptor). Internalization data were observed thanks to vHCS View and analyzed using Genedata® software.
Target sequence in this assay (P21453 whole entry): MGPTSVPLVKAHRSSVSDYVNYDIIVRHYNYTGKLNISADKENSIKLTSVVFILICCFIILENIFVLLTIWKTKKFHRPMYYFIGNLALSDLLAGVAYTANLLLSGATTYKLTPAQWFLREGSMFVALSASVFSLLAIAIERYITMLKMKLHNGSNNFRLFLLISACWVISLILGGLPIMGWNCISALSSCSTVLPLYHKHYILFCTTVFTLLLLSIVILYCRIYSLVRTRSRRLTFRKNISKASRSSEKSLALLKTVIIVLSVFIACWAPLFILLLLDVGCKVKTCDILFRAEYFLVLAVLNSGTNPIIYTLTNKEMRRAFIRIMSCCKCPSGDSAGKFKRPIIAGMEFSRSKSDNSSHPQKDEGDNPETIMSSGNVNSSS

The target of the next assay is S1P3 (Homo sapiens, UniProt Q99500). The assay is described as follows: Receptor binding assay, [33P]sphingosine 1-phosphate competition, S1P3 membranes, WGA SPA beads. As for the experimental part:
(§1) Membranes were prepared from CHO cells expressing S1P1 or S1P3 for use in ligand and […] binding studies. Cells were suspended in 50 mM TRIS, pH 7.4, 2 mM EDTA, 250 mM Sucrose (buffer A) and 1× Complete protease inhibitor cocktail (Roche), and disrupted at 4° C. by N2 decompression using a cell disruption bomb (Parr Instrument). Following centrifugation at 1000 RPM for 10 min at 4° C., the supernatant was diluted (2×) in buffer A and centrifuged again at 19000 RPM for 75 min at 4° C. The pellet was then suspended in 10 mM HEPES, pH 7.4, 1 mM EDTA, 250 mM Sucrose (Buffer B), and 1× Complete EDTA-free protease inhibitor cocktail and homogenized using a potter. Membranes were flash frozen in liquid N2 and stored at −80° C.
(§2) Receptor binding assay: [33P]sphingosine 1-phosphate (3000 Ci/mmol; American Radiolabeled Chemicals, Inc.) was added to test compounds in 20% DMSO by competition. Membranes and WGA SPA beads (GE Healthcare) were added to give a final volume of 100 μl in 96-well plates or 50 μl in 384-well plates with assay concentrations of […] [33P]sphingosine 1-phosphate (respectively for S1P1 or S1P3), 50 mM HEPES, pH 7.5, 5 mM MgCl2, 100 mM NaCl, 0.4% fatty acid-free BSA, 1-5 μg/well of proteins in 96-well plates vs 0.6-1 μg/well of proteins in 384-well plates and 100 μg/well of WGA SPA beads in 96-well plates vs 75 μg/well of WGA SPA beads in 384-well plates. Binding was performed for 60 min at RT on a shaker and bound radioactivity was measured on a PerkinElmer 1450 MicroBeta counter. Triplicate samples were averaged and normalized as percentage of inhibition relative to total binding (only DMSO in well) and nonspecific binding (1000-fold excess of unlabeled S1P). Binding data were analyzed using the GraphPad Prism program or Genedata software.

Assay [2] has as its target T1, S1P1. The assay is described as follows: Receptor binding assay, [33P]sphingosine 1-phosphate competition, S1P1 membranes, WGA SPA beads. As for the experimental part: as §1, §2
Target sequence in this assay (P21453 whole entry, species assumed): as the sequence (P21453 whole entry) above
[3] abbreviates: 96 well-plate, read-out: S1P3 binding Ki (M) (96 well-plate).
[4] abbreviates: 96 well-plate, read-out: S1P1 binding Ki (M) (96 well-plate).
[5] abbreviates: 384 well-plate, read-out: S1P1 binding Ki (M) (384 well-plate).
The mark [6] stands for this setting: 384 well-plate, read-out: S1P3 binding Ki (M) (384 well-plate).

pEC50: −log10 of the molar value. Counter-ions that a name gives are not always drawn. Like-named read-outs stand apart in the source and are kept apart here.

Chain of S1P3 (Q99500 whole entry, species assumed): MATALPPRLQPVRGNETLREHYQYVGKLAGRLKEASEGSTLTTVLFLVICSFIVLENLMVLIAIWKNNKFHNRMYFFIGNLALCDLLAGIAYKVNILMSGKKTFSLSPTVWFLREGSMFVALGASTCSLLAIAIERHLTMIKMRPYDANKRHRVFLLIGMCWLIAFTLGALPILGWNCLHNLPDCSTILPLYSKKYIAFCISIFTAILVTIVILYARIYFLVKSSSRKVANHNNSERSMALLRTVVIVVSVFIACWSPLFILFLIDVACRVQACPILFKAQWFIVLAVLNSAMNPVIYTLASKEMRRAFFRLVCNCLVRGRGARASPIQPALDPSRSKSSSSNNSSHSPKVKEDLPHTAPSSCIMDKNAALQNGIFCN

Turning to `COCc1cc(-c2nc(-c3ccc(CN(C)CC(=O)O)c(OC)c3)no2)ccc1-c1ccccc1C` [Example 79, 2-((2-methoxy-4-(5-(2-(methoxymethyl)-2′-methylbiphenyl-4-yl)-1,2,4-oxadiazol-3-yl)benzyl)(methyl)amino)acetic acid, hydrochloride salt], at S1P1 [1], the pEC50 was 7.32. The Ki on S1P3 (setting [3]) is 4.84e-06 M; at S1P1 [2] (setting [4]), 2.69e-09 M; at S1P1 [2] (setting [5]), 5.33e-09 M.

Compound `COCc1cc(-c2nc(-c3ccc(CN(C)CC(=O)O)c(F)c3)no2)ccc1-c1cccc(F)c1C` [Example 91, N-(2-fluoro-4-{5-[3′-fluoro-2-(methoxymethyl)-2′-methylbiphenyl-4-yl]-1,2,4-oxadiazol-3-yl}benzyl)-N-methylglycine, hydrochloride salt] had a negative-log EC50 (pEC50) at S1P1 [1] of 8.26. Besides, the Ki is 2e-07 M at S1P3 (setting [3]), 3.35e-07 M on S1P3 (setting [6]), 1.63e-10 M at S1P1 [2] (setting [4]) and 1.13e-09 M at S1P1 [2] (setting [5]).

With `C[C@@H]1CCCCN1c1ccc(-c2nc(-c3cccc(CN(C)CC(=O)O)c3)no2)cc1C(F)(F)F` [Example 45, N-methyl-N-(3-{5-[4-[(2R)-2-methylpiperidin-1-yl]-3-(trifluoromethyl)phenyl]-1,2,4-oxadiazol-3-yl}benzyl)glycine, hydrochloride salt], the pEC50 at S1P1 [1] was 7.92. Also, the inhibitory constant (Ki) at S1P3 (setting [3]) came to 1.82e-07 M; at S1P1 [2] (setting [4]), 5.2e-10 M.

The compound `Cc1ccccc1-c1ccc(-c2nc(-c3ccc(CN(C)CC(=O)O)cc3)no2)cc1C` [Example 130, N-{4-[5-(2,2′-dimethylbiphenyl-4-yl)-1,2,4-oxadiazol-3-yl]benzyl}-N-methylglycine, hydrochloride salt] had a pEC50 at S1P1 [1] of 7.63. Further, the Ki on S1P3 (setting [6]) was 5.38e-06 M; at S1P1 [2] (setting [4]), 8.34e-10 M; on S1P1 [2] (setting [5]), 2.53e-09 M.

At S1P1 [1], `C[C@H]1CCCCN1c1ccc(-c2nc(-c3cccc(CN(C)CC(=O)O)c3)no2)cc1C(F)(F)F` [Example 46, N-methyl-N-(3-{5-[4-[(2S)-2-methylpiperidin-1-yl]-3-(trifluoromethyl)phenyl]-1,2,4-oxadiazol-3-yl}benzyl)glycine, hydrochloride salt] showed a pEC50 of 8.28. Also, the Ki on S1P3 (setting [3]) amounted to 1.31e-07 M; on S1P1 [2] (setting [4]) it was 1.07e-10 M.

The compound `CCc1cc(-c2noc(-c3ccc(-c4ccccc4C)c(COC)c3)n2)ccc1CN(C)CC(=O)O` [Example 124, 2-((2-ethyl-4-(5-(2-(methoxymethyl)-2′-methylbiphenyl-4-yl)-1,2,4-oxadiazol-3-yl)benzyl)(methyl)amino)acetic acid] gave a pEC50 at S1P1 [1] of 7.63. Also, the Ki worked out at 4.1e-06 M at S1P3 (setting [6]) and 1.98e-09 M on S1P1 [2] (setting [5]).

With `Cc1ccccc1-c1ccc(-c2nc(-c3cccc(CN(C)CC(=O)O)c3)no2)cc1C` [Example 132, N-{3-[5-(2,2′-dimethylbiphenyl-4-yl)-1,2,4-oxadiazol-3-yl]benzyl}-N-methylglycine, hydrochloride salt], the pEC50 on S1P1 [1] is 6.63. The inhibition constant Ki on S1P3 (setting [6]) was found to be 1.64e-06 M; at S1P1 [2] (setting [5]), 3.65e-09 M.

For `COCc1cc(-c2nc(-c3ccc(OCCO)c(F)c3)no2)ccc1-c1ccccc1C` [Example 28, 2-(2-fluoro-4-{5-[2-(methoxymethyl)-2′-methylbiphenyl-4-yl]-1,2,4-oxadiazol-3-yl}phenoxy)ethanol], at S1P1 [1], the negative-log EC50 (pEC50) is 7.92. The Ki on S1P3 (setting [3]) stood at 2.14e-07 M; at S1P1 [2] (setting [4]), 8.88e-10 M.

`COCc1cc(-c2nc(-c3ccc(CN(C)CCC(=O)O)cc3)no2)ccc1-c1ccccc1C` [Example 74, N-(4-{5-[2-(methoxymethyl)-2′-methylbiphenyl-4-yl]-1,2,4-oxadiazol-3-yl}benzyl)-N-methyl-beta-alanine, hydrochloride salt]: the pEC50 at S1P1 [1] is 8.84. Also, the values for the Ki on S1P3 (setting [3]) and at S1P1 [2] (setting [4]) were 1.08e-07 M and 2.01e-10 M, respectively.

Compound `COCc1cc(-c2nc(-c3cccc(CN(C)CC(O)CO)c3)no2)ccc1-c1ccccc1C` (stereo not drawn) [Example 39, 3-[(3-{5-[2-(methoxymethyl)-2′-methylbiphenyl-4-yl]-1,2,4-oxadiazol-3-yl}benzyl)(methyl)amino]propane-1,2-diol] had a pEC50 at S1P1 [1] of 7.87. Further, the Ki at S1P3 (setting [3]) was determined as 8.48e-07 M; on S1P3 (setting [6]), 1.18e-06 M; at S1P1 [2] (setting [4]) it was 3.71e-10 M; at S1P1 [2] (setting [5]), 2.08e-09 M.

The compound `COCc1cc(-c2nc(-c3cccc(CN(CC(=O)O)C(C)C)c3)no2)ccc1-c1ccccc1C` [Example 58, N-isopropyl-N-(3-{5-[2-(methoxymethyl)-2′-methylbiphenyl-4-yl]-1,2,4-oxadiazol-3-yl}benzyl)glycine, hydrochloride salt] showed a pEC50 at S1P1 [1] of 8.10. Further, the Ki at S1P3 (setting [3]) was 2.02e-07 M; at S1P1 [2] (setting [4]) it was 3.91e-10 M.

`COCc1cc(-c2nc(-c3cccc(CN(C)CC(=O)O)c3)no2)ccc1-c1ccc(F)cc1C` [Example 36, N-(3-{5-[4′-fluoro-2-(methoxymethyl)-2′-methylbiphenyl-4-yl]-1,2,4-oxadiazol-3-yl}benzyl)-N-methylglycine, hydrochloride salt] gave a pEC50 on S1P1 [1] of 7.83. The Ki was found to be 2.71e-07 M on S1P3 (setting [6]), 5.59e-10 M on S1P1 [2] (setting [4]) and 1.97e-09 M at S1P1 [2] (setting [5]).

For the compound `COCc1cc(-c2nc(-c3ccc(CN(C)CC(=O)O)c(F)c3)no2)ccc1-c1ccccc1C` [Example 52, N-(2-fluoro-4-{5-[2-(methoxymethyl)-2′-methylbiphenyl-4-yl]-1,2,4-oxadiazol-3-yl}benzyl)-N-methylglycine, hydrochloride salt], the pEC50 on S1P1 [1] was 8.60. The inhibition constant (Ki) at S1P3 (setting [3]) came out at 1.27e-07 M; at S1P1 [2] (setting [4]), 1.96e-10 M.

Take `COCc1cc(-c2nc(-c3ccc(CN(C)CC(=O)O)cc3Cl)no2)ccc1-c1ccccc1C` [Example 144, 2-((4-(5-(2-(methoxymethyl)-2′-methylbiphenyl-4-yl)-1,2,4-oxadiazol-3-yl)-3-chlorobenzyl)(methyl)amino)acetic acid]: on S1P1 [1], the negative-log EC50 (pEC50) is 7.59. Also, the Ki at S1P3 (setting [6]) is 3.55e-07 M; on S1P1 [2] (setting [5]) it was 1.73e-09 M.

`COCc1cc(-c2nc(-c3ccc(CCN(C)CC(=O)O)cc3)no2)ccc1-c1ccccc1C` [Example 87, [(2-{4-[5-(2-Methoxymethyl-2′-methyl-biphenyl-4-yl)-[1,2,4]oxadiazol-3-yl]-phenyl}-ethyl)-methyl-amino]-acetic acid]: the pEC50 at S1P1 [1] is 7.87. Besides, the inhibition constant Ki turned out to be 4.2e-07 M on S1P3 (setting [3]), 3.85e-07 M at S1P3 (setting [6]), 4.23e-10 M on S1P1 [2] (setting [4]) and 9.45e-10 M at S1P1 [2] (setting [5]).

With `CCN(CCC(=O)O)Cc1cccc(-c2noc(-c3ccc(-c4ccccc4F)c(COC)c3)n2)c1` [Example 62, N-ethyl-N-(3-{5-[2′-fluoro-2-(methoxymethyl)biphenyl-4-yl]-1,2,4-oxadiazol-3-yl}benzyl)-beta-alanine, hydrochloride salt], on S1P1 [1], the pEC50 was 8.54. Moreover, the Ki came to 1.72e-08 M at S1P3 (setting [3]) and 1.68e-10 M on S1P1 [2] (setting [4]).
